Data reported in ChEMBL document CHEMBL4715829, “Heterodimeric Rifampicin-Tobramycin conjugates break intrinsic resistance of Pseudomonas aeruginosa to doxycycline and chloramphenicol in vitro and in a Galleria mellonella in vivo model” (Eur J Med Chem, 2019).
In brackets after ≈: the same amount, converted by molar mass.

Key:
Pseudomonas aeruginosa [1] = test: Antibacterial activity against Pseudomonas aeruginosa 101243 assessed as fractional inhibitory concentration index in presence of doxycycline incubated for 18 hrs by broth microdilution assay; format: functional
Pseudomonas aeruginosa [2] = test: Antibacterial activity against Pseudomonas aeruginosa 101885 assessed as reduction in bacterial growth incubated for 18 hrs by broth microdilution assay; format: functional
Pseudomonas aeruginosa [3] = test: Antibacterial activity against Pseudomonas aeruginosa PAO1 assessed as fractional inhibitory concentration index in presence of Trimethoprim incubated for 18 hrs by broth microdilution assay based checkerboard assay; format: functional
[4] = Cytotoxicity against human HepG2 cells assessed as cell viability at <10 uM incubated for 48 hrs prestoblue assay; format: cell-based; details: read-out: Activity
[5] = system: Staphylococcus epidermidis; test: Antibacterial activity against methicillin-resistance Staphylococcus epidermidis CAN-ICU 61589 (CAZ>32) assessed as reduction in bacterial growth incubated for 18 hrs by broth microdilution assay; format: functional
Pseudomonas aeruginosa [6] = test: Antibacterial activity against Pseudomonas aeruginosa PAO1 assessed as reduction in bacterial growth by measuring linezolid MIC at <=10 uM in presence of linezolid incubated for 18 hrs by broth microdilution assay based checkerboard assay (reference value: 1024 microg/ml); format: functional; details: dose microM <=10
Pseudomonas aeruginosa [7] = test: Antibacterial activity against Pseudomonas aeruginosa PAO1 assessed as reduction in bacterial growth by measuring nitrofurantoin MIC at <=10 uM in presence of nitrofurantoin incubated for 18 hrs by broth microdilution assay based checkerboard assay (reference value: 512 microg/ml); format: functional; details: dose microM <=10
Pseudomonas aeruginosa [8] = test: Antibacterial activity against Pseudomonas aeruginosa PAO1 assessed as fractional inhibitory concentration index in presence of Rifampicin incubated for 18 hrs by broth microdilution assay based checkerboard assay; format: functional
Pseudomonas aeruginosa [9] = test: Antibacterial activity against Pseudomonas aeruginosa PAO1 assessed as fractional inhibitory concentration index in presence of Fosfomycin incubated for 18 hrs by broth microdilution assay based checkerboard assay; format: functional
Pseudomonas aeruginosa [10] = test: Antibacterial activity against Pseudomonas aeruginosa PAO1 assessed as reduction in bacterial growth by measuring tigecycline MIC at <=10 uM in presence of tigecycline incubated for 18 hrs by broth microdilution assay based checkerboard assay (reference value: 4 microg/ml); format: functional; details: dose microM <=10
Pseudomonas aeruginosa [11] = test: Antibacterial activity against Pseudomonas aeruginosa PAO1 assessed as reduction in bacterial growth by measuring fosfomycin MIC at <=[…] uM in presence of fosfomycin incubated for 18 hrs by broth microdilution assay based checkerboard assay (reference value: […] microg/ml); format: functional; details: dose microM <=10
Enterococcus faecalis = test: Antibacterial activity against Enterococcus faecalis ATCC 29212 assessed as reduction in bacterial growth incubated for 18 hrs by broth microdilution assay; format: functional
Pseudomonas aeruginosa [12] = test: Antibacterial activity against Pseudomonas aeruginosa 260-97103 assessed as fractional inhibitory concentration index in presence of doxycycline incubated for 18 hrs by broth microdilution assay; format: functional
Staphylococcus aureus = test: Antibacterial activity against Staphylococcus aureus ATCC 29213 assessed as reduction in bacterial growth incubated for 18 hrs by broth microdilution assay; format: functional
Pseudomonas aeruginosa [13] = test: Antibacterial activity against Pseudomonas aeruginosa 100036 assessed as fractional inhibitory concentration index in presence of doxycycline incubated for 18 hrs by broth microdilution assay; format: functional
Pseudomonas aeruginosa [14] = test: Antibacterial activity against Pseudomonas aeruginosa PAO1 assessed as fractional inhibitory concentration index in presence of Minocycline incubated for 18 hrs by broth microdilution assay based checkerboard assay; format: functional
Pseudomonas aeruginosa [15] = test: Antibacterial activity against Pseudomonas aeruginosa 262-101856 assessed as fractional inhibitory concentration index in presence of chloramphenicol incubated for 18 hrs by broth microdilution assay; format: functional
Pseudomonas aeruginosa [16] = test: Antibacterial activity against Pseudomonas aeruginosa PAO1 assessed as reduction in bacterial growth by measuring doxycycline MIC at <=[…] uM in presence of doxycycline incubated for 18 hrs by broth microdilution assay based checkerboard assay (reference value: […] microg/ml); format: functional; details: dose microM <=10
Pseudomonas aeruginosa [17] = test: Antibacterial activity against Pseudomonas aeruginosa PAO1 assessed as reduction in bacterial growth by measuring trimethoprim MIC at <=10 uM in presence of trimethoprim incubated for 18 hrs by broth microdilution assay based checkerboard assay (reference value: 64 microg/ml); format: functional; details: dose microM <=10
Pseudomonas aeruginosa [18] = test: Antibacterial activity against Pseudomonas aeruginosa 100036 assessed as fractional inhibitory concentration index in presence of chloramphenicol incubated for 18 hrs by broth microdilution assay; format: functional
Pseudomonas aeruginosa [19] = test: Antibacterial activity against Pseudomonas aeruginosa 101243 assessed as reduction in bacterial growth incubated for 18 hrs by broth microdilution assay; format: functional
Escherichia coli = test: Antibacterial activity against Escherichia coli ATCC 25922 assessed as reduction in bacterial growth incubated for 18 hrs by broth microdilution assay; format: functional
Pseudomonas aeruginosa [20] = test: Antibacterial activity against Pseudomonas aeruginosa PAO1 assessed as reduction in bacterial growth by measuring meropenem MIC at <=10 uM in presence of meropenem incubated for 18 hrs by broth microdilution assay based checkerboard assay (reference value: 1 microg/ml); format: functional; details: dose microM <=10
Pseudomonas aeruginosa [21] = test: Antibacterial activity against Pseudomonas aeruginosa PAO1 assessed as fractional inhibitory concentration index in presence of Novobiocin incubated for 18 hrs by broth microdilution assay based checkerboard assay; format: functional
Pseudomonas aeruginosa [22] = test: Antibacterial activity against gentamicin, tobramycin-resistant Pseudomonas aeruginosa CANWARD 96846 assessed as reduction in bacterial growth incubated for 18 hrs by broth microdilution assay; format: functional
Pseudomonas aeruginosa [23] = test: Antibacterial activity against Pseudomonas aeruginosa PAO1 assessed as reduction in bacterial growth by measuring chloramphenicol MIC at <=[…] uM in presence of chloramphenicol incubated for 18 hrs by broth microdilution assay based checkerboard assay (reference value: […] microg/ml); format: functional; details: dose microM <=10
Pseudomonas aeruginosa [24] = test: Antibacterial activity against Pseudomonas aeruginosa PAO1 assessed as reduction in bacterial growth by measuring moxifloxacin MIC at <=10 uM in presence of moxifloxacin incubated for 18 hrs by broth microdilution assay based checkerboard assay (reference value: 1 microg/ml); format: functional; details: dose microM <=10
Pseudomonas aeruginosa [25] = test: Antibacterial activity against Pseudomonas aeruginosa 259-96918 assessed as fractional inhibitory concentration index in presence of chloramphenicol incubated for 18 hrs by broth microdilution assay; format: functional
Pseudomonas aeruginosa [26] = test: Antibacterial activity against Pseudomonas aeruginosa PAO1 assessed as reduction in bacterial growth by measuring clindamycin MIC at <=10 uM in presence of clindamycin incubated for 18 hrs by broth microdilution assay based checkerboard assay (reference value: 1024 microg/ml); format: functional; details: dose microM <=10
[27] = Cytotoxicity against human HepG2 cells assessed as cell viability at 50 uM incubated for 48 hrs by prestoblue assay; format: cell-based; details: read-out: Activity
Pseudomonas aeruginosa [28] = test: Antibacterial activity against Pseudomonas aeruginosa PAO1 assessed as fractional inhibitory concentration index in presence of Meropenem incubated for 18 hrs by broth microdilution assay based checkerboard assay; format: functional
Pseudomonas aeruginosa [29] = test: Antibacterial activity against Pseudomonas aeruginosa PAO1 assessed as fractional inhibitory concentration index in presence of Pleuromutilin incubated for 18 hrs by broth microdilution assay based checkerboard assay; format: functional
[30] = Cytotoxicity against human HEK293 cells assessed as cell viability at <10 uM incubated for 48 hrs by prestoblue assay; format: cell-based; details: read-out: Activity
Enterococcus faecium = test: Antibacterial activity against Enterococcus faecium ATCC 27270 assessed as reduction in bacterial growth incubated for 18 hrs by broth microdilution assay; format: functional
Pseudomonas aeruginosa [31] = test: Antibacterial activity against Pseudomonas aeruginosa PAO1 assessed as reduction in bacterial growth by measuring tobramycin MIC at <=10 uM in presence of tobramycin incubated for 18 hrs by broth microdilution assay based checkerboard assay (reference value: 1 microg/ml); format: functional; details: dose microM <=10

For `CO[C@H]1/C=C/O[C@@]2(C)Oc3c(C)c(O)c4c(O)c(c(/C=N/N5CCN(Cc6cn(CCCCCCO[C@@H]7[C@@H](O[C@H]8O[C@H](CO)[C@@H](O)[C@H](N)[C@H]8O)[C@H](N)C[C@H](N)[C@H]7O[C@H]7O[C@H](CN)[C@@H](O)C[C@H]7N)nn6)CC5)c(O)c4c3C2=O)NC(=O)/C(C)=C\C=C\[C@H](C)[C@H](O)[C@@H](C)[C@@H](O)[C@@H](C)[C@H](OC(C)=O)[C@@H]1C.Cl.Cl.Cl.Cl.Cl`, the “fractional inhibitory concentration index (FICI)” value (Pseudomonas aeruginosa [1]) was 0.125, the MIC (Pseudomonas aeruginosa [2]) was 256 mg/L and the “fractional inhibitory concentration index (FICI)” value (Pseudomonas aeruginosa [3]) was 0.53. For the same compound, the viability at 48 h [4] was over 90%, the MIC [5] was 4 mg/L and the MIC (Pseudomonas aeruginosa [6]) was 128 mg/L. For the same compound, the MIC (Pseudomonas aeruginosa [7]) was 256 mg/L, the “fractional inhibitory concentration index (FICI)” value (Pseudomonas aeruginosa [8]) was 0.28 and the “fractional inhibitory concentration index (FICI)” value (Pseudomonas aeruginosa [9]) was 0.15. For the same compound, the MIC (Pseudomonas aeruginosa [10]) was 2 mg/L, the MIC (Pseudomonas aeruginosa [11]) was 2 mg/L and the MIC (Enterococcus faecalis) was over 32 mg/L. For the same compound, the “fractional inhibitory concentration index (FICI)” value (Pseudomonas aeruginosa [12]) was under 0.133, the MIC (Staphylococcus aureus) was 16 mg/L and the “fractional inhibitory concentration index (FICI)” value (Pseudomonas aeruginosa [13]) was 0.078. For the same compound, the “fractional inhibitory concentration index (FICI)” value (Pseudomonas aeruginosa [14]) was 0.28, the “fractional inhibitory concentration index (FICI)” value (Pseudomonas aeruginosa [15]) was under 0.125 and the MIC (Pseudomonas aeruginosa [16]) was 0.5 mg/L. For the same compound, the MIC (Pseudomonas aeruginosa [17]) was 32 mg/L, the “fractional inhibitory concentration index (FICI)” value (Pseudomonas aeruginosa [18]) was 0.066 and the MIC (Pseudomonas aeruginosa [19]) was at least 256 mg/L. For the same compound, the MIC (Escherichia coli) was at least 32 mg/L, the MIC (Pseudomonas aeruginosa [20]) was 1 mg/L and the “fractional inhibitory concentration index (FICI)” value (Pseudomonas aeruginosa [21]) was 0.28. The MIC (Pseudomonas aeruginosa [22]) was over 32 mg/L, the MIC (Pseudomonas aeruginosa [23]) was 1 mg/L and the MIC (Pseudomonas aeruginosa [24]) was 0.5 mg/L. The “fractional inhibitory concentration index (FICI)” value (Pseudomonas aeruginosa [25]) was under 0.375, the MIC (Pseudomonas aeruginosa [26]) was 256 mg/L and the viability at 48 h, 50 µM [27] was over 70%. The “fractional inhibitory concentration index (FICI)” value (Pseudomonas aeruginosa [28]) was 1.03, the “fractional inhibitory concentration index (FICI)” value (Pseudomonas aeruginosa [29]) was 0.28 and the viability at 48 h [30] was over 90%. For the same compound, the MIC (Enterococcus faecium) was over 32 mg/L and the MIC (Pseudomonas aeruginosa [31]) was 1 mg/L.

In the case of `NC[C@H]1O[C@H](O[C@H]2[C@H](O)[C@@H](O[C@H]3O[C@H](CO)[C@@H](O)[C@H](N)[C@H]3O)[C@H](N)C[C@@H]2N)[C@H](N)C[C@@H]1O` [TOBRAMYCIN], the “fractional inhibitory concentration index (FICI)” value (Pseudomonas aeruginosa [1]) is reported as 1.5, the MIC (Pseudomonas aeruginosa [2]) is reported as 1 mg/L (≈ 2.14 µM) and the MIC [5] is reported as 2 mg/L (≈ 4.28 µM). For the same compound, the MIC (Enterococcus faecalis) was 8 mg/L (≈ 17.1 µM), the “fractional inhibitory concentration index (FICI)” value (Pseudomonas aeruginosa [12]) was 1.5 and the MIC (Staphylococcus aureus) was 0.5 mg/L (≈ 1.07 µM). For the same compound, the “fractional inhibitory concentration index (FICI)” value (Pseudomonas aeruginosa [13]) was 1.5, the “fractional inhibitory concentration index (FICI)” value (Pseudomonas aeruginosa [15]) was “<=1” and the “fractional inhibitory concentration index (FICI)” value (Pseudomonas aeruginosa [18]) was 1.5. For the same compound, the MIC (Pseudomonas aeruginosa [19]) was 128 mg/L (≈ 274 µM), the MIC (Escherichia coli) was 0.5 mg/L (≈ 1.07 µM) and the MIC (Pseudomonas aeruginosa [22]) was 256 mg/L (≈ 548 µM). For the same compound, the “fractional inhibitory concentration index (FICI)” value (Pseudomonas aeruginosa [25]) was 1.25 and the MIC (Enterococcus faecium) was 16 mg/L (≈ 34.2 µM).
